Test results reported in patent publication US8895559B2, “Quinoxalines derivatives and pharmaceutical compositions and kits” (Merck Patent GmbH, priority 2010, dated 2014).

These compounds were tested on PI3K (assay: Cellular testing of PI3K inhibitors: P-S473-PKB Luminex assay in PC3 cells). Details: PI3K-dependent phosphorylation of PKB at Serin 473 in PC3 cells.
Type: cell-based
Description: Description of the Method for the Cellular Testing of PI3K Inhibitors
The cellular assay for determination of the P-S473-PKB level is carried out as a Luminex assay in 96-well format in PC3 cells.
PC3 cells are sown out with 20,000 cells per well in 100 μl medium (45% RPMI1460/45% Ham's F12/10% FCS) and incubated on the following day for 30 min with a serial dilution of the test substance (7 concentrations) under serum-free conditions. […] The lysates are incubated overnight at 4° C. with shaking with Luminex beads to which an anti-total PKB antibody is coupled. The detection is carried out on the following day by addition of a P-S473-PKB antibody and a species-specific PE-labelled secondary antibody. The detection of P-S473-PKB is carried out by measurement in a Luminex 100 instrument by determination of 100 events per cavity in a measurement time of 60 sec. […] The values of the preparations treated with test substance are calculated from this as percent of control, and IC50 values are determined by means of RS1.

SMILES	IC50 [µM]
COc1ccc(CCCO)c(Nc2nc3ccccc3nc2NS(=O)(=O)c2cn(C)c(CN(C)C)n2)c1 [reference compound]	1.1
COc1cc(Nc2nc3ccccc3nc2NS(=O)(=O)c2cn(C)cn2)c(OCCS(C)(=O)=O)c(OC)c1 [drawing 161]	0.086
COc1ccc(CCO)c(Nc2nc3ccccc3nc2NS(C)(=O)=O)c1 [reference compound]	4.9

Same assay, conditions: PI3 kinase inhibition, cell

SMILES	IC50 [µM]
COc1cc2c(c(Nc3nc4ccccc4nc3NS(=O)(=O)c3cn(C)cn3)c1)OC(CO)C2 (centres unmarked) [Compound A5]	0.1 to 10
COc1cc(Nc2nc3ccccc3nc2NS(=O)(=O)c2cn(C)c(CN(C)C)n2)c(OCCCCO)c(OC)c1 [Compound A113]	0.1 to 10
COc1cc(Nc2nc3ccccc3nc2NS(=O)(=O)c2cn(C)cn2)c2c(c1)OC(CO)CO2 (centres unmarked) [Compound A124]	0.1 to 10
COc1cc(Nc2nc3ccccc3nc2NS(=O)(=O)c2cn(C)cn2)c(OCC(C)CO)c(OC)c1 (centres unmarked) [Compound A32]	0.1 to 10
COc1cc(Nc2nc3ccccc3nc2NS(=O)(=O)CCC#N)c(OCCCO)c(OC)c1 [Compound A96]	0.1 to 10
COc1cc(Nc2nc3ccccc3nc2NS(=O)(=O)c2ccc(CN(C)C)cc2)c(OCCOCCO)c(OC)c1 [Compound A57, 4-Dimethylaminomethyl-N-(3-{2-[2-(2-hydroxy-ethoxy)ethoxy]-3,5-dimethoxyphenylamino}-quinoxalin-2-yl)benzenesulfonamide]	0.1 to 10
COc1cc(Nc2nc3ccccc3nc2NS(=O)(=O)c2cnn(C)c2)c(OCCCO)c(OC)c1 [Compound A44]	0.001 to 0.1
COc1cc(Nc2nc3ccccc3nc2NS(=O)(=O)c2ccccc2)c(OCCCO)c(OC)c1 [Compound A30]	0.001 to 0.1
COc1cc(Nc2nc3ccccc3nc2NS(=O)(=O)c2cccs2)c(OCCOCCO)c(OC)c1 [Compound A64]	0.001 to 0.1
COc1cc(Nc2nc3ccccc3nc2NS(=O)(=O)c2ccc(C(=O)N(C)C)cc2)c2occc2c1 [Compound A15]	> 10
COc1cc(Nc2nc3ccccc3nc2NS(=O)(=O)C2CCS(=O)(=O)C2)c(OCCCO)c(OC)c1 (centres unmarked) [Compound A35]	0.001 to 0.1
COc1cc(Nc2nc3ccccc3nc2NS(=O)(=O)c2ccc(NC(C)=O)cc2)c(OCCCO)c(OC)c1 [Compound A50]	0.001 to 0.1
COc1cc(Nc2nc3ccccc3nc2NS(=O)(=O)c2ccn(CC(=O)N(C)C)n2)c(OCCC(C)O)c(OC)c1 (centres unmarked) [Compound A120]	0.001 to 0.1
COc1cc(Nc2nc3ccccc3nc2NS(=O)(=O)c2cccc(C(=O)N3CC(F)(F)C3)c2)c(OCCCO)c(OC)c1 [Compound A107]	0.1 to 10
COc1cc(Nc2nc3ccccc3nc2NS(=O)(=O)c2cn(C)cn2)c(CCCN2CCS(=O)(=O)CC2)c(OC)c1 [Compound A4]	0.1 to 10
COc1cc(Nc2nc3ccccc3nc2NS(=O)(=O)c2cn(C)cn2)c(OCCN2CCOCC2)c(OC)c1 [Compound A54]	0.1 to 10
COc1cc(Nc2nc3ccccc3nc2NS(=O)(=O)c2ccc(F)cc2)c(OCCOCCO)c(OC)c1 [Compound A53]	0.001 to 0.1
COc1cc(Nc2nc3ccccc3nc2NS(=O)(=O)c2ccc(CN3CCC3)cc2)c(OCCCO)c(OC)c1 [Compound A111, 4-Azetidin-1-ylmethyl-N-{3-[2-(3-hydroxypropoxy)-3,5-dimethoxyphenylamino]-quinoxalin-2-yl}-benzenesulfonamide]	0.1 to 10
COc1cc(Nc2nc3ccccc3nc2NS(=O)(=O)c2ccn(CC(=O)N(C)C)n2)c(OC)c(OC)c1 [Compound A131]	0.001 to 0.1
CCc1c(Nc2nc3ccccc3nc2NS(=O)(=O)c2ccc(C(=O)N(C)C)cc2)cc(OC)cc1OC [Compound A13]	0.1 to 10

SMILES	IC50 [µM]
COc1cc(Nc2nc3ccccc3nc2NS(=O)(=O)c2ccc(CN3CC(F)(F)C3)cc2)c(OCCCO)c(OC)c1 [Compound A110, 4-(3,3-Difluoroazetidin-1-ylmethyl)-N-{3-[2-(3-hydroxypropoxy)-3,5-dimethoxyphenylamino]-quinoxalin-2-yl}benzenesulfonamide]	0.001 to 0.1
COc1cc(Nc2nc3ccccc3nc2NS(=O)(=O)c2cncs2)c(OCCC(C)O)c(OC)c1 (centres unmarked) [Compound A101]	0.001 to 0.1
COc1cc(Nc2nc3ccccc3nc2NS(=O)(=O)c2ccc(C#N)cc2)c(OCCOCCO)c(OC)c1 [Compound A80]	0.001 to 0.1
COc1cc(Nc2nc3ccccc3nc2NS(=O)(=O)c2ccc(CN(C)C)cc2)c(OCCCO)c(OC)c1 [Compound A38, 4-dimethylaminomethyl-N-{3-[2-(3-hydroxypropoxy)-3,5-dimethoxyphenylamino]quinoxalin-2-yl}benzenesulfonamide]	0.001 to 0.1
COc1cc(Nc2nc3ccccc3nc2NS(=O)(=O)c2ccn(CC(=O)N(C)C)n2)c(OCCCO)c(OC)c1 [Compound A122]	0.001 to 0.1
COc1cc(Nc2nc3ccccc3nc2NS(=O)(=O)c2ccc(C(=O)N(C)C)cc2)c(OC)c(OC)c1 [Compound A90]	0.1 to 10
COc1cc(Nc2nc3ccccc3nc2NS(=O)(=O)c2cncs2)c(OCCCO)c(OC)c1 [Compound A22]	0.001 to 0.1
CCOC(=O)Nc1ccc(S(=O)(=O)Nc2nc3ccccc3nc2Nc2cc(OC)cc(OC)c2OCCCO)cc1 [Compound A34]	0.1 to 10
COc1cc(Nc2nc3ccccc3nc2NS(=O)(=O)c2cccnc2)c(OCCN(C)CCO)c(OC)c1 [Compound A68]	0.1 to 10
COc1cc(Nc2nc3ccccc3nc2NS(=O)(=O)c2ccncc2)c(OCCCO)c(OC)c1 [Compound A21]	> 10
COc1cc(Nc2nc3ccccc3nc2NS(=O)(=O)c2cn(C)cn2)c(OCCCO)c(OC)c1 [Compound A86]	0.001 to 0.1
COc1cc(Nc2nc3ccccc3nc2NS(=O)(=O)c2cn(C)c(CN(C)C)n2)c(CCCCO)c(OC)c1 [Compound A94]	0.1 to 10
COc1cc(Nc2nc3ccccc3nc2NS(=O)(=O)c2ccc(F)c(F)c2)c(OCCOCCO)c(OC)c1 [Compound A73]	0.1 to 10
CCc1c(Nc2nc3ccccc3nc2NS(=O)(=O)c2cn(C)cn2)cc(OC)cc1OC [Compound A14]	0.1 to 10
CCCS(=O)(=O)Nc1nc2ccccc2nc1Nc1cc(OC)cc(OC)c1OCCOCCO [Compound A56]	0.1 to 10
COc1cc(Nc2nc3ccccc3nc2NS(=O)(=O)c2cn(C)cn2)c(OCCS(=O)(=O)CCO)c(OC)c1 [Compound A77]	0.1 to 10
COc1cc(Nc2nc3ccccc3nc2NS(=O)(=O)c2cn(C)c(CN(C)C)n2)c(OCCC(C)O)c(OC)c1 (centres unmarked) [Compound A28]	0.001 to 0.1
COc1cc(Nc2nc3ccccc3nc2NS(=O)(=O)c2cnn(C(F)F)c2)c(OCCCO)c(OC)c1 [Compound A29]	0.001 to 0.1
COc1cc(Nc2nc3ccccc3nc2NS(=O)(=O)C(F)(F)F)c(OC)c(OC)c1 [Compound A40]	0.001 to 0.1
COc1cc(Nc2nc3ccccc3nc2NS(=O)(=O)c2ccn(C)n2)c(OCCC(C)O)c(OC)c1 (centres unmarked) [Compound A100]	0.001 to 0.1

SMILES	IC50 [µM]
COc1cc(Nc2nc3ccccc3nc2NS(=O)(=O)c2ccn(C(F)(F)C(=O)N(C)C)n2)c(OCCCO)c(OC)c1 [Compound A119]	0.1 to 10
COc1cc(Nc2nc3ccccc3nc2NS(=O)(=O)c2ccc(C#N)cc2)c(OCCCO)c(OC)c1 [Compound A82]	0.001 to 0.1
COc1cc(Nc2nc3ccccc3nc2NS(=O)(=O)c2cn(C)cn2)c(OCCO)c(OC)c1 [Compound A89]	0.001 to 0.1
COc1cc(Nc2nc3ccccc3nc2NS(=O)(=O)c2cn(C)cn2)c(OCC(O)CO)c(OC)c1 (centres unmarked) [Compound A75]	0.1 to 10
COc1cc(Nc2nc3ccccc3nc2NS(=O)(=O)c2cccnc2)c(OCCS(=O)(=O)CCO)c(OC)c1 [Compound A67]	0.1 to 10
COc1cc(Nc2nc3ccccc3nc2NS(=O)(=O)c2cnn(CC(=O)N(C)C)c2)c(OCCCO)c(OC)c1 [Compound A27]	0.1 to 10
COc1cc(Nc2nc3ccccc3nc2NS(=O)(=O)c2ccc(C#N)cc2)c(OCC[S+]([O-])CCO)c(OC)c1 (centres unmarked) [Compound A72]	0.001 to 0.1
COc1cc(Nc2nc3ccccc3nc2NS(=O)(=O)C(F)(F)F)c(OCCCO)c(OC)c1 [Compound A39]	0.001 to 0.1
COc1cc(C)c(OC)c(Nc2nc3ccccc3nc2NS(=O)(=O)c2ccc(C(=O)N(C)C)cc2)c1 [Compound A12]	0.1 to 10
CCN(CC)Cc1nc(S(=O)(=O)Nc2nc3ccccc3nc2Nc2cc(OC)cc(OC)c2OCCCO)cn1C [Compound A126]	0.1 to 10
COc1cc(Nc2nc3ccccc3nc2NS(=O)(=O)c2cn(C)cn2)c2c(c1)OCC(CO)O2 (centres unmarked) [Compound A127]	0.1 to 10
COc1cc(Nc2nc3ccccc3nc2NS(=O)(=O)c2ccc(C#N)cc2)c(OC)c(OC)c1 [Compound A91]	0.001 to 0.1
COc1cc(Nc2nc3ccccc3nc2NS(=O)(=O)c2cn(C)cn2)c(OCC[S+](C)[O-])c(OC)c1 (centres unmarked) [Compound A52]	0.1 to 10
CCN(CC)Cc1nc(S(=O)(=O)Nc2nc3ccccc3nc2Nc2cc(OC)cc(OC)c2OCCC(C)O)cn1C (centres unmarked) [Compound A123]	0.1 to 10
COc1cc(Nc2nc3ccccc3nc2NS(=O)(=O)c2ccc(C#N)cc2)c(CCCN(C)C)c(OC)c1 [Compound A2]	0.1 to 10
COc1cc(Nc2nc3ccccc3nc2NS(=O)(=O)c2ccc(C#N)cc2)c(OCCC(C)O)c(OC)c1 (centres unmarked) [Compound A45]	0.001 to 0.1
COc1cc(Nc2nc3ccccc3nc2NS(C)(=O)=O)c(OCCC(C)O)c(OC)c1 (centres unmarked) [Compound A99]	0.001 to 0.1
COc1cc(Nc2nc3ccccc3nc2NS(=O)(=O)c2ccc(C(=O)N3CCC3)cc2)c(OCCCO)c(OC)c1 [Compound A102]	0.001 to 0.1
COc1cc(Nc2nc3ccccc3nc2NS(=O)(=O)c2cnn(C(F)F)c2)c(OCCC(C)O)c(OC)c1 (centres unmarked) [Compound A103]	0.001 to 0.1
